“Also recorded” adds a separate entry of the source. Values belong to the molecule of their own block, whether it stands above or below them.
What was measured:
[1] = test system: tumors; conditions: cited from earlier work
[2] = Concentration of saturated AR42 stock solutions (anti-solvent addition crystallization); type: physicochemical; conditions: equilibrated 24 hours, filtered
Description: Tables 3-5 illustrate anti-solvent addition crystallization experiments conducted on the indicated Form. In this example, saturated solutions of AR42 were prepared in the following solvents: Acetone, 2-Butanone, Methanol, Ethanol, Isopropanol, Acetonitrile, 1,4-Dioxane and Dimethylformamide. Excess AR42 was added to the solvent and the suspension equilibrated for 24 hours. After equilibration, the suspension was filtered through a […] filter to remove particulate solids.
An equal volume of anti-solvent selected from the following list was added to 300 μL of the saturated solutions of AR42: Toluene, Nitrobenzene, Nitromethane, Water, n-Heptane, Cyclohexane. An additional 300 μL of anti-solvent was added if no precipitation occurred. Aliquots of 300 μL of anti-solvent were added until precipitation occurred or the total volume was 1,200 μL of anti-solvent. The solution was allowed to incubate for 60 minutes at room temperature in between the addition of anti-solvent. If no precipitation occurred after the last addition of anti-solvents, samples were incubated for 24 hours at 4° C. Samples in which precipitation occurred were centrifuged for 10 minutes at 3000 rpm to separate the liquid from the solid. The liquid phase was removed and the solid phase dried and analyzed by XRPD. The solutions in which no precipitation occurred were placed under deep vacuum and dried to completion. Solids were collected and analysed by XRPD.

[3] = Solubility assessment experiments in organic solvents
Description: (§1) Solubility assessment experiments were carried out in a variety of solvents followed by storage in a climate chamber for 48 to 72 hours at 40 degrees centigrade and 75% relative humidity.

[4] = Stability study in climate chamber (48-72 h, 40° C./75% RH), form assigned by XRPD; conditions: for XRPD Form b: form assigned after the stability studies / XRPD Form c: form assigned after the stability studies: at 40° C./75% RH; for XRPD Form b: form assigned after the stability studies: samples from anti-solvent addition, label = form before stability
Description: as §1

[5] = Storage of samples under ambient conditions, form assigned by XRPD; type: physicochemical
[6] = 48-72 H, samples from cooling-evaporative crystallization, Table 6, label = form after recrystallization
[7] = 1-1.5 weeks ambient, cooling-evaporative crystallization, Table 6, label = form after recrystallization
[8] = 1.5-2 weeks ambient, solvent-drop grinding, Table 8, label = form after grinding
[9] = 46-72 H, samples from solvent-drop grinding, Table 8, label = form after grinding
[10] = 1-1.5 weeks ambient, cooling-evaporative crystallization, Table 7, label = form after recrystallization
[11] = 48-72 H, samples from cooling-evaporative crystallization, Table 7, label = form after recrystallization
[12] = 1-1.5 weeks ambient, slurry conversion, Table 9, label = form after slurry
[13] = 48-72 H, samples from slurry conversion, Table 9, label = form after slurry

Concentration (mg/mL) of saturated stock solution ([2]; stock solvent Acetone): 175.9 mg/mL
Concentration (mg/mL) of saturated stock solution ([2]; stock solvent Acetonitrile): 13.5 mg/mL
Concentration (mg/mL) of saturated stock solution ([2]; stock solvent Butanone 2-): 130.7 mg/mL
Concentration (mg/mL) of saturated stock solution ([2]; stock solvent Dimethylformamide N,N-): 335 mg/mL
Concentration (mg/mL) of saturated stock solution ([2]; stock solvent Dioxane, 1,4-): 46.8 mg/mL
Concentration (mg/mL) of saturated stock solution ([2]; stock solvent Ethanol): 134.1 mg/mL
Concentration (mg/mL) of saturated stock solution ([2]; stock solvent Propanol 2-): 227.8 mg/mL
Concentration (mg/mL) of saturated stock solution ([2]; stock solvent methanol): 390.5 mg/mL
Concentration ([3]; Table 1, solvent Chloroform): <2000 µg/mL
Concentration ([3]; Table 1, solvent Nitromethane): 1000 µg/mL
Concentration ([3]; Table 1, solvent Toluene): <1000 µg/mL
Concentration ([3]; Table 1, solvent Trifluoroethanol, 2,2,2-): 7000 µg/mL
SMILES: CC(C)[C@H](C(=O)Nc1ccc(C(=O)NO)cc1)c1ccccc1 [AR-42, (S)—N-hydroxy-4-(3-methyl-2-phenylbutanamido)benzamide]
Inhibitory effect in tumors ([1]; breast, prostate, ovarian, blood cell, liver, and brain tumors): demonstrated inhibitory effect
Potency and activity compared to vorinostat (SAHA) ([1]; solid tumors and hematological malignancies): greater potency and activity

XRPD Form b: form assigned after the stability studies ([4]; 48-72 H, Table 5): Form A
Concentration ([3]; Table 1, solvent NMP): 482500 µg/mL
SMILES: CC(C)[C@H](C(=O)Nc1ccc(C(=O)NO)cc1)c1ccccc1 [Am_oily]

XRPD Form b: form assigned after storage under ambient conditions ([5]; 1-1.5 weeks ambient, cooling-evaporative crystallization, Table 6, label = form after recrystallization, experiment ML13, solvent 1 Butyl Acetate): Form U1 + Am*
XRPD Form b: form assigned after storage under ambient conditions ([5]; 1-1.5 weeks ambient, cooling-evaporative crystallization, Table 6, label = form after recrystallization, experiment ML14, solvent 1 Chlorobenzene): Form A_wet**
XRPD Form c: form assigned after the stability studies [4, 6]: Form A + Am*
Concentration ([3]; Table 1, solvent Amyl Ether): <1000 µg/mL
SMILES: CC(C)C(C(=O)Nc1ccc(C(=O)NO)cc1)c1ccccc1 (centres unmarked) [Form A + Am]

XRPD Form b: form assigned after storage under ambient conditions [5, 7]: Form B1_wet**
XRPD Form b: form assigned after storage under ambient conditions [5, 8]: Form A_wet**
XRPD Form c: form assigned after the stability studies [4, 9]: Form A
XRPD Form c: form assigned after the stability studies [4, 6]: Form A_wet**
Concentration ([3]; Table 2, solvent Acetone): 108900 µg/mL
SMILES: CC(C)C(C(=O)Nc1ccc(C(=O)NO)cc1)c1ccccc1 (centres unmarked) [Form A + Form B1]

XRPD Form b: form assigned after storage under ambient conditions [5, 7]: Form A
XRPD Form b: form assigned after storage under ambient conditions [5, 10]: Form A
XRPD Form b: form assigned after storage under ambient conditions ([5]; 1.5-2 weeks ambient, solvent-drop grinding, Table 8, label = form after grinding, ground with a drop of Octanol-1): Form A
XRPD Form b: form assigned after storage under ambient conditions ([5]; 1.5-2 weeks ambient, solvent-drop grinding, Table 8, label = form after grinding, ground with a drop of Propyl acetate): Form A5a
XRPD Form c: form assigned after the stability studies [4, 9]: Form A
XRPD Form b: form assigned after the stability studies ([4]; 48-72 H, Table 3): Form A
XRPD Form c: form assigned after the stability studies [4, 11]: Form A
Concentration ([3]; Table 2, solvent Amyl Ether): 18400 µg/mL
Concentration ([3]; Table 2, solvent Dimethyl-4-heptanone 2,6-): 20300 µg/mL
Concentration ([3]; Table 2, solvent Hexafluorobenzene): 21400 µg/mL
Concentration ([3]; Table 2, solvent Nitromethane): 21200 µg/mL
Concentration ([3]; Table 2, solvent Toluene): 18800 µg/mL
Concentration ([3]; Table 2, solvent Trifluoroethanol, 2,2,2-): 20600 µg/mL
SMILES: CC(C)[C@H](C(=O)Nc1ccc(C(=O)NO)cc1)c1ccccc1 [Form A, (S)—N-hydroxy-4-(3-methyl-2-phenylbutanamido)benzamide]

XRPD Form b: form assigned after storage under ambient conditions ([5]; 1-1.5 weeks ambient, cooling-evaporative crystallization, Table 6, label = form after recrystallization, experiment ML7, solvent 1 Dichloroethane): Form A
XRPD Form b: form assigned after storage under ambient conditions ([5]; 1-1.5 weeks ambient, cooling-evaporative crystallization, Table 6, label = form after recrystallization, experiment ML8, solvent 1 Fluorbenzene): Form A_wet**
XRPD Form b: form assigned after storage under ambient conditions ([5]; 1-1.5 weeks ambient, cooling-evaporative crystallization, Table 6, label = form after recrystallization, experiment ML32, solvent 1 Heptane, N-): Form U1 + Am*
XRPD Form b: form assigned after storage under ambient conditions [5, 8]: Form A_wet**
XRPD Form c: form assigned after the stability studies [4, 9]: Form A
XRPD Form b: form assigned after the stability studies ([4]; 48-72 H, Table 3): Form A + Am*
Concentration ([3]; Table 1, solvent Hexafluorobenzene): <1000 µg/mL
SMILES: CC(C)[C@H](C(=O)Nc1ccc(C(=O)NO)cc1)c1ccccc1 [Form A_wet]

Concentration ([3]; Table 2, solvent Dioxane, 1,4-): 32300 µg/mL
SMILES: CC(C)C(C(=O)Nc1ccc(C(=O)NO)cc1)c1ccccc1 (centres unmarked) [Form B1 + Form D1]

XRPD Form b: form assigned after storage under ambient conditions [5, 10]: Form B1
XRPD Form c: form assigned after the stability studies [4, 11]: Form B1
Concentration ([3]; Table 1, solvent Dimethyl-4-heptanone 2,6-): 2000 µg/mL
Concentration ([3]; Table 2, solvent Chloroform): 20800 µg/mL
SMILES: CC(C)[C@H](C(=O)Nc1ccc(C(=O)NO)cc1)c1ccccc1 [Form B1, (S)—N-hydroxy-4-(3-methyl-2-phenylbutanamido)benzamide]
Stability after storage in a climate chamber ([4]; 48 to 72 hours at 40 degrees centigrade and 75% relative humidity): exhibited a particular degree of stability

XRPD Form b: form assigned after storage under ambient conditions [5, 10]: Form B1_wet**
XRPD Form b: form assigned after storage under ambient conditions [5, 12]: Form B1
XRPD Form c: form assigned after the stability studies [4, 13]: Form A5a
Concentration ([3]; Table 2, solvent Isophorone): 243700 µg/mL
SMILES: CC(C)[C@H](C(=O)Nc1ccc(C(=O)NO)cc1)c1ccccc1 [Form B1_wet]

Concentration ([3]; Table 2, solvent Dimethyl Sulfoxide): 472500 µg/mL
SMILES: CC(C)[C@H](C(=O)Nc1ccc(C(=O)NO)cc1)c1ccccc1 [Form C, (S)—N-hydroxy-4-(3-methyl-2-phenylbutanamido)benzamide]

XRPD Form b: form assigned after storage under ambient conditions [5, 10]: Form D1
XRPD Form b: form assigned after storage under ambient conditions [5, 8]: Form D1
XRPD Form c: form assigned after the stability studies [4, 9]: Form A
XRPD Form b: form assigned after the stability studies ([4]; 48-72 H, Table 5): Form D2 + Am*
XRPD Form c: form assigned after the stability studies [4, 11]: Form A
Concentration ([3]; Table 2, solvent Nitrobenzene): 19700 µg/mL
SMILES: CC(C)[C@H](C(=O)Nc1ccc(C(=O)NO)cc1)c1ccccc1 [Form D1, (S)—N-hydroxy-4-(3-methyl-2-phenylbutanamido)benzamide]

XRPD Form b: form assigned after storage under ambient conditions [5, 7]: Form U2 + Am*
XRPD Form c: form assigned after the stability studies [4, 6]: Form A_wet**
SMILES: CC(C)[C@H](C(=O)Nc1ccc(C(=O)NO)cc1)c1ccccc1 [Form X_gel, (S)—N-hydroxy-4-(3-methyl-2-phenylbutanamido)benzamide]

XRPD Form b: form assigned after storage under ambient conditions [5, 12]: Form M2 + Am*
XRPD Form c: form assigned after the stability studies [4, 13]: Form M2
SMILES: CC(C)C(C(=O)Nc1ccc(C(=O)NO)cc1)c1ccccc1 (centres unmarked) [Form Y + Am]

XRPD Form b: form assigned after storage under ambient conditions [5, 7]: Form U1 + Am*
XRPD Form c: form assigned after the stability studies [4, 6]: Form Z_wet**
SMILES: CC(C)[C@H](C(=O)Nc1ccc(C(=O)NO)cc1)c1ccccc1 [Form Z_wet]

XRPD Form b: form assigned after storage under ambient conditions [5, 7]: Form D1_wet**
XRPD Form c: form assigned after the stability studies [4, 6]: Form A
SMILES: CC(C)[C@H](C(=O)Nc1ccc(C(=O)NO)cc1)c1ccccc1 [Wet sample]
XRPD Form b: form assigned after the stability studies ([4]; 48-72 H, Table 3): Form A + Am*; also recorded: Form W + Am*

— patent publication US20140271604A1, “HDAC Inhibitor Polymorphic Forms and Methods of Use” (priority 2013, published 2014)
